Measured values: ChEMBL document CHEMBL4725294, “Centrally Active Multitarget Anti-Alzheimer Agents Derived from the Antioxidant Lead CR-6” (J Med Chem, 2020)
Activity calls are given as the source filed them. No cut-off for these calls is given here.

Legend:
[1] = Drug level in human liver microsomes treated with N-{8-[(6-Chloro-1,2,3,4-tetrahydroacridin-9-yl)amino]octyl}-2-(6-hydroxy-7-methoxy-2-methylchroman-2-yl)acetamide at 5 uM measured up to 60 mins by UPLC-MS/MS analysis; assay type: ADME, Microsome; details: 1 h
[2] = Drug level in mouse liver microsomes treated with N-{8-[(6-Chloro-1,2,3,4-tetrahydroacridin-9-yl)amino]octyl}-2-(6-hydroxy-7-methoxy-2-methylchroman-2-yl)acetamide at 5 uM measured up to 60 mins by UPLC-MS/MS analysis; assay type: ADME, Microsome; details: 1 h
[3] = Drug level in rat liver microsomes treated with N-{8-[(6-Chloro-1,2,3,4-tetrahydroacridin-9-yl)amino]octyl}-2-(6-hydroxy-7-methoxy-2-methylchroman-2-yl)acetamide at 5 uM measured up to 60 mins by UPLC-MS/MS analysis; assay type: ADME, Microsome; details: 1 h
Acetylcholinesterase [4] = molecular target: T1, Acetylcholinesterase (Homo sapiens, UniProt P22303); assay: Potency index, ratio of tacrine IC50 to test compound IC50 for recombinant human AChE expressed in HEK293 cells; assay type: cell-based
Cholinesterase [5] = molecular target: T2, Cholinesterase (Homo sapiens, UniProt P06276); assay: Potency index, ratio of tacrine IC50 to test compound IC50 for recombinant human BChE
Beta-secretase 1 [6] = molecular target: T3, Beta-secretase 1 (Homo sapiens, UniProt P56817); assay: Inhibition human BACE1 expressed in baculovirus expression system using Panvera peptide as substrate measured after 60 mins by fluorescence assay
Beta-secretase 1 [7] = molecular target: T3, Beta-secretase 1; assay: Inhibition human BACE1 expressed in baculovirus expression system at 5 uM using Panvera peptide as substrate measured after 60 mins by fluorescence assay relative to control; details: 1 h; for inhibition (INH): 5 µM
Acetylcholinesterase [8] = molecular target: T1, Acetylcholinesterase
Description: (§1) Inhibition of recombinant human AChE expressed in HEK293 cells using acetylthiocholine iodide as substrate preincubated for 15 mins followed by substrate addition by Ellman's method

Cholinesterase [9] = molecular target: T2, Cholinesterase
Description: (§2) Inhibition of recombinant human BChE using butyrylthiocholine iodide as substrate preincubated for 15 mins followed by substrate addition by Ellman's method

in vitro = details: PAMPA
Description: Permeability of compound in PBS/EtOH buffer (7:3) PAMPA-BBB assay

Acetylcholinesterase [10] = molecular target: T1, Acetylcholinesterase; assay: Inhibition of recombinant human AChE expressed in HEK293 cells at 100 uM using acetylthiocholine iodide as substrate preincubated for 15 mins followed by substrate addition by Ellman's method
Cholinesterase [11] = molecular target: T2, Cholinesterase; assay: Inhibition of recombinant human BChE at 100 uM using butyrylthiocholine iodide as substrate preincubated for 15 mins followed by substrate addition by Ellman's method
Acetylcholinesterase [12] = molecular target: T1, Acetylcholinesterase; details: hek293
Description: as §1

Cholinesterase [13] = molecular target: T2, Cholinesterase; remark: listed apart in the source
Description: as §2

Acetylcholinesterase [14] = molecular target: T1, Acetylcholinesterase; assay: Mixed inhibition of recombinant human AChE expressed in HEK293 cells assessed as dissociation constant for enzyme-inhibitor complex using varying levels of acetylthiocholine iodide as substrate preincubated for 15 mins followed by substrate addition by Line-weaver Burk plot analysis
Acetylcholinesterase [15] = molecular target: T1, Acetylcholinesterase; assay: Mixed inhibition of recombinant human AChE expressed in HEK293 cells assessed as dissociation constant for enzyme-substrate-inhibitor complex using varying levels of acetylthiocholine iodide as substrate preincubated for 15 mins followed by substrate addition by Line-weaver Burk plot analysis
Acetylcholinesterase [16] = molecular target: Acetylcholinesterase (Electrophorus electricus, UniProt O42275); assay: Displacement of propidium iodide from PAS region of electric eel AChE by fluorescence assay
Chain of Acetylcholinesterase (Electrophorus electricus, UniProt O42275) (O42275 whole entry): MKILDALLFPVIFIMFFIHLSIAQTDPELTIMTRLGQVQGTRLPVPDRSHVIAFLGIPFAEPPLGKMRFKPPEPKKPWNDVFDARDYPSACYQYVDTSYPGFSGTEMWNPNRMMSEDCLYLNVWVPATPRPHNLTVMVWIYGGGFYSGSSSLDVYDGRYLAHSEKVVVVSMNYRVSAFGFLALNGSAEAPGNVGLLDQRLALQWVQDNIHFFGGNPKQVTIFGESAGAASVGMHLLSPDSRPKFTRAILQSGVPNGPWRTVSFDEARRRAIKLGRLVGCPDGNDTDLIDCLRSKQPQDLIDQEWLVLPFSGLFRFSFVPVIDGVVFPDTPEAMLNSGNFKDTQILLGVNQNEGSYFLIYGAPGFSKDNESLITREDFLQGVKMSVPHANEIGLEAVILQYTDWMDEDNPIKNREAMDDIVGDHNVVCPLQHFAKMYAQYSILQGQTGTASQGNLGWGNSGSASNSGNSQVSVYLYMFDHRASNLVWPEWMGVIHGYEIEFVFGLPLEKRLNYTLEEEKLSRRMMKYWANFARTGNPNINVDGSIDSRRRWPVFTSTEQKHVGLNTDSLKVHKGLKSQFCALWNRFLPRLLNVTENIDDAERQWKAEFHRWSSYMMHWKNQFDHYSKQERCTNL

T1 sequence (P22303 whole entry): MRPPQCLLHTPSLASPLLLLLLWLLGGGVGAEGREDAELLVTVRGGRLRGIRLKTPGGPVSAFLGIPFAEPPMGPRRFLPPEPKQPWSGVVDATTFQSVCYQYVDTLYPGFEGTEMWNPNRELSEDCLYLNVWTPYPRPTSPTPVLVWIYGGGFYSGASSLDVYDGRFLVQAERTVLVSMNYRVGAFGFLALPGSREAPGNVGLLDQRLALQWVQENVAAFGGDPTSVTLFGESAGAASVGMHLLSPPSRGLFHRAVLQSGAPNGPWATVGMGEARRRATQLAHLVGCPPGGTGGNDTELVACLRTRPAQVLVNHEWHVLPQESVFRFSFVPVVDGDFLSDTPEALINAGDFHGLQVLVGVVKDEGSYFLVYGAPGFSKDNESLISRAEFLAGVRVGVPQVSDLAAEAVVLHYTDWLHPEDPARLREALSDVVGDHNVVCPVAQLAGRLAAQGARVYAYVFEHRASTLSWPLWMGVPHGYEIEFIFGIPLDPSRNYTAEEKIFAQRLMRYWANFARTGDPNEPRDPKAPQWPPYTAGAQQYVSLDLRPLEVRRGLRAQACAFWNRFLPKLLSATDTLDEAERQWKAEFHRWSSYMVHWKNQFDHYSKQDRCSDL
T2 sequence (P06276 whole entry): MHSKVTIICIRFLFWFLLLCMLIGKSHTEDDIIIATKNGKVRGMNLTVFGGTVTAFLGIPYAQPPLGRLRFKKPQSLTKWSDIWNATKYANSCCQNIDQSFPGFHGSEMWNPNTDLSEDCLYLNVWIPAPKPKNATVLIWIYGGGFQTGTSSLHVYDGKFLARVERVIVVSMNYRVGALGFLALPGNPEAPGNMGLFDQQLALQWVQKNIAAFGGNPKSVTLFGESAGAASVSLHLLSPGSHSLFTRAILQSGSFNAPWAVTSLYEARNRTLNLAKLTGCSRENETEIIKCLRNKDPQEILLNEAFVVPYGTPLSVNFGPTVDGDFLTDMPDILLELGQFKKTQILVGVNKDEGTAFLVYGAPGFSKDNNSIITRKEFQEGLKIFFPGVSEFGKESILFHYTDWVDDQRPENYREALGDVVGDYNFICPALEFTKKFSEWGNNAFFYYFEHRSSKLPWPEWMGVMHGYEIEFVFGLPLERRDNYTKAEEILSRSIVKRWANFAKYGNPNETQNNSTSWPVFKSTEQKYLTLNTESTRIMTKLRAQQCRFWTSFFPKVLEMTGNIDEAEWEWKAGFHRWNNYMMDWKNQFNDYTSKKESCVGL
T3 sequence (P56817 whole entry): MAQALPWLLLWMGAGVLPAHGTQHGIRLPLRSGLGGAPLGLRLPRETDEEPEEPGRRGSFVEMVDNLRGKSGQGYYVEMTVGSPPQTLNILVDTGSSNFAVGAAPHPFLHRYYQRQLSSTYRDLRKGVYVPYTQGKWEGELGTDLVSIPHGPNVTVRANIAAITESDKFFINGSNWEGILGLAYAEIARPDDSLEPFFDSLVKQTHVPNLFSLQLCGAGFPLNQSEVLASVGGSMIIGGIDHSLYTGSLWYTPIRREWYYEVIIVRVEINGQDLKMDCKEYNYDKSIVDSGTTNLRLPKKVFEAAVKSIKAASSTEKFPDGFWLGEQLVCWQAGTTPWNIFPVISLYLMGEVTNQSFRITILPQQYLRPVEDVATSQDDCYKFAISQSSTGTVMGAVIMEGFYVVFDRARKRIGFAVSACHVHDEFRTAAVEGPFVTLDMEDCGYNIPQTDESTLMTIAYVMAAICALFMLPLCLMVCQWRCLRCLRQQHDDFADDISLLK

With `COC1=CC(=O)C2(CCC(C)(CC(=O)NCCCCCCCCNc3c4c(nc5cc(Cl)ccc35)CCCC4)O2)CC1=O` (configuration not stated) the Drug metabolism [1] was “Metabolite_Detected”, the Drug metabolism [2] was “Metabolite_Detected” and the Drug metabolism [3] was “Metabolite_Detected”.
With `COc1cc2c(cc1O)CCC(C)(CC(=O)NCCCCCCCNc1c3c(nc4ccccc14)CCCC3)O2` (configuration not stated) the Ratio IC50 (Acetylcholinesterase [4]) was < 5, the Ratio IC50 (Cholinesterase [5]) was 7 and the IC50 (Beta-secretase 1 [6]) was “Not Active”. The “inhibition (INH)” value (Beta-secretase 1 [7]) was “Not Active”, the IC50 (Acetylcholinesterase [8]) was 111 nM and the IC50 (Cholinesterase [9]) was 4.28 nM. For the same molecule, the Papp (in vitro) was 6.6 ×10⁻⁶ cm/s.
In the case of `COc1cc(O)c(CCC(C)(O)CC(=O)NCCCCCCCCNc2c3c(nc4cc(Cl)ccc24)CCCC3)cc1O` (configuration not stated), the Drug metabolism [1] is reported as “Metabolite_Detected”, the Drug metabolism [2] is reported as “Metabolite_Detected” and the Drug metabolism [3] is reported as “Metabolite_Detected”.
For `COc1cc2c(cc1O)CCC(C)(CC(=O)NCCOCCOCCNc1c3c(nc4cc(Cl)ccc14)CCCC3)O2` (configuration not stated), the IC50 (Beta-secretase 1 [6]) was “Not Active”, the “inhibition (INH)” value (Beta-secretase 1 [7]) was “Not Active” and the IC50 (Acetylcholinesterase [8]) was 47.9 nM. The IC50 (Cholinesterase [9]) was 1840 nM and the Papp (in vitro) was 7 ×10⁻⁶ cm/s.
`COc1cc2c(cc1O)CCC(C)(CCC(=O)NCCCCCCCNc1c3c(nc4cc(Cl)ccc14)CCCC3)O2` (configuration not stated) gave an inhibition at 5 µM (Beta-secretase 1 [7]) of 14%, an IC50 (Acetylcholinesterase [8]) of 7.94 nM and an IC50 (Cholinesterase [9]) of 187 nM. For the same molecule, the Papp (in vitro) was 8.3 ×10⁻⁶ cm/s.
With `COc1cc2c(cc1O)CCC(C)(CC(=O)NCCCCCCCCNc1c3c(nc4ccccc14)CCCC3)O2` (configuration not stated) the Ratio IC50 (Acetylcholinesterase [4]) was < 5, the Ratio IC50 (Cholinesterase [5]) was 7 and the IC50 (Beta-secretase 1 [6]) was “Not Active”. The “inhibition (INH)” value (Beta-secretase 1 [7]) was “Not Active”, the IC50 (Acetylcholinesterase [8]) was 69.8 nM and the IC50 (Cholinesterase [9]) was 5.33 nM. For the same molecule, the Papp (in vitro) was 7.3 ×10⁻⁶ cm/s.
In the case of `COc1cc2c(cc1O)CCC(C)(CCNCCCCCCCNc1c3c(nc4cc(Cl)ccc14)CCCC3)O2` (configuration not stated), the Ratio IC50 (Cholinesterase [5]) is reported as 2, the IC50 (Beta-secretase 1 [6]) is reported as “Not Active” and the “inhibition (INH)” value (Beta-secretase 1 [7]) is reported as “Not Active”. It also gave an IC50 (Acetylcholinesterase [8]) of 0.44 nM, an IC50 (Cholinesterase [9]) of 17.4 nM and a Papp (in vitro) of 10.3 ×10⁻⁶ cm/s.
For `COC1=CC(=O)C(CCC(C)(O)CC(=O)NCCCCCCCCNc2c3c(nc4cc(Cl)ccc24)CCCC3)=CC1=O` (configuration not stated), the Drug metabolism [1] was “Metabolite_Detected”, the Drug metabolism [2] was “Metabolite_Detected” and the Drug metabolism [3] was “Metabolite_Detected”.
In the case of `COc1cc2c(cc1O)CCC(C)(CCC(=O)NCCCCCCNc1c3c(nc4cc(Cl)ccc14)CCCC3)O2` (configuration not stated), the IC50 (Beta-secretase 1 [6]) is reported as “Not Active”, the “inhibition (INH)” value (Beta-secretase 1 [7]) is reported as “Not Active” and the IC50 (Acetylcholinesterase [8]) is reported as 3.8 nM. It also gave an IC50 (Cholinesterase [9]) of 102 nM and a Papp (in vitro) of 7.8 ×10⁻⁶ cm/s.
In the case of `COc1cc2c(cc1OCc1ccccc1)CCC(C)(CC(=O)NCCCCCCCNc1c3c(nc4cc(Cl)ccc14)CCCC3)O2` (configuration not stated), the IC50 (Beta-secretase 1 [6]; read-out: IC50) is reported as 12500 nM, the IC50 (Acetylcholinesterase [8]) is reported as 6.99 nM and the IC50 (Cholinesterase [9]) is reported as 51 nM. For the same molecule, the Papp (in vitro) was 11.5 ×10⁻⁶ cm/s.
In the case of `COc1cc2c(cc1OCc1ccccc1)CCC(C)(CC(=O)NCCCCCCCCCNc1c3c(nc4cc(Cl)ccc14)CCCC3)O2` (configuration not stated), the IC50 (Beta-secretase 1 [6]; read-out: IC50) is reported as 7190 nM, the IC50 (Acetylcholinesterase [8]) is reported as 7.89 nM and the IC50 (Cholinesterase [9]) is reported as 30.6 nM. It also gave a Papp (in vitro) of 10.4 ×10⁻⁶ cm/s.
For `COc1cc2c(cc1O)CCC(C)(CC(=O)NCCCCCCNc1c3c(nc4ccccc14)CCCC3)O2` (configuration not stated), the Ratio IC50 (Acetylcholinesterase [4]) was < 5, the Ratio IC50 (Cholinesterase [5]) was 7 and the IC50 (Beta-secretase 1 [6]) was “Not Active”. For the same molecule, the “inhibition (INH)” value (Beta-secretase 1 [7]) was “Not Active”, the IC50 (Acetylcholinesterase [8]) was 275 nM and the IC50 (Cholinesterase [9]) was 4.99 nM. The Papp (in vitro) was 4.3 ×10⁻⁶ cm/s.
`COc1cc2c(cc1O)CCC(C)(CCNCCCCCCCCCNc1c3c(nc4cc(Cl)ccc14)CCCC3)O2` (configuration not stated) showed a Ratio IC50 (Cholinesterase [5]) of 2, an inhibition at 5 µM (Beta-secretase 1 [7]) of 28.1% and an IC50 (Acetylcholinesterase [8]) of 0.27 nM. It also gave an IC50 (Cholinesterase [9]) of 18.3 nM and a Papp (in vitro) of 10.1 ×10⁻⁶ cm/s.
With `COc1cc2c(cc1O)CCC(C)(CCN)O2` (configuration not stated) the inhibition (Acetylcholinesterase [10]) was “inactive”, the inhibition (Cholinesterase [11]) was “inactive” and the IC50 (Acetylcholinesterase [8]) was 101000 nM. It also gave an IC50 (Cholinesterase [9]) of 23200 nM and a Papp (in vitro) of 1 ×10⁻⁶ cm/s.
In the case of `COc1cc2c(cc1OCc1ccccc1)CCC(C)(CC(=O)NCCCCCCNc1c3c(nc4cc(Cl)ccc14)CCCC3)O2` (configuration not stated), the IC50 (Beta-secretase 1 [6]; read-out: IC50) is reported as 18000 nM, the IC50 (Acetylcholinesterase [8]) is reported as 11 nM and the IC50 (Cholinesterase [9]) is reported as 201 nM. For the same molecule, the Papp (in vitro) was 10.7 ×10⁻⁶ cm/s.
For `Nc1c2c(nc3cc(Cl)ccc13)CCCC2`, the Drug metabolism [1] was “Metabolite_Detected”, the Drug metabolism [2] was “Metabolite_Detected” and the Drug metabolism [3] was “Metabolite_Detected”. It also gave a Papp (in vitro) of 26.1 ×10⁻⁶ cm/s.
With `COc1cc2c(cc1O)CCC(C)(CC(=O)NCCCCCCCCCNc1c3c(nc4ccccc14)CCCC3)O2` (configuration not stated) the Ratio IC50 (Acetylcholinesterase [4]) was < 5, the Ratio IC50 (Cholinesterase [5]) was 7 and the inhibition at 5 µM (Beta-secretase 1 [7]) was 6.75%. For the same molecule, the IC50 (Acetylcholinesterase [8]) was 57.8 nM, the IC50 (Cholinesterase [9]) was 5.36 nM and the Papp (in vitro) was 8.9 ×10⁻⁶ cm/s.
For `COc1cc2c(cc1O)CCC(C)(CC(=O)NCCCCCCCNc1c3c(nc4cc(Cl)ccc14)CCCC3)O2` (configuration not stated), the IC50 (Beta-secretase 1 [6]) was “Not Active”, the “inhibition (INH)” value (Beta-secretase 1 [7]) was “Not Active” and the IC50 (Acetylcholinesterase [8]) was 5.43 nM. For the same molecule, the IC50 (Cholinesterase [9]) was 79.1 nM and the Papp (in vitro) was 9.7 ×10⁻⁶ cm/s.
For `COc1cc2c(cc1O)CCC(C)(CC(=O)O)O2` (configuration not stated), the IC50 (Acetylcholinesterase [12]) was “Not Active”, the IC50 (Cholinesterase [13]) was “Not Active” and the Papp (in vitro) was 0.4 ×10⁻⁶ cm/s.
Molecule `COc1cc2c(cc1O)CCC(C)(CCNCCOCCOCCNc1c3c(nc4cc(Cl)ccc14)CCCC3)O2` (configuration not stated) has an inhibition at 5 µM (Beta-secretase 1 [7]) of 19.9%, an IC50 (Acetylcholinesterase [8]) of 8.35 nM and an IC50 (Cholinesterase [9]) of 180 nM. The Papp (in vitro) was 9.7 ×10⁻⁶ cm/s.
In the case of `COc1cc2c(cc1O)CCC(C)(CCC(=O)NCCCCCCCCNc1c3c(nc4cc(Cl)ccc14)CCCC3)O2` (configuration not stated), the IC50 (Beta-secretase 1 [6]) is reported as “Not Active”, the “inhibition (INH)” value (Beta-secretase 1 [7]) is reported as “Not Active” and the IC50 (Acetylcholinesterase [8]) is reported as 6.23 nM. The IC50 (Cholinesterase [9]) was 148 nM and the Papp (in vitro) was 8.7 ×10⁻⁶ cm/s.
For `COc1cc2c(cc1O)CCC(C)(CC(=O)NCCCCCCCCCNc1c3c(nc4cc(Cl)ccc14)CCCC3)O2` (configuration not stated), the IC50 (Beta-secretase 1 [6]) was “Not Active”, the “inhibition (INH)” value (Beta-secretase 1 [7]) was “Not Active” and the IC50 (Acetylcholinesterase [8]) was 2.05 nM. For the same molecule, the IC50 (Cholinesterase [9]) was 168 nM and the Papp (in vitro) was 8.2 ×10⁻⁶ cm/s.
For `COc1cc2c(cc1O)CCC(C)(CCNCCCCCCCCNc1c3c(nc4cc(Cl)ccc14)CCCC3)O2` (configuration not stated), the Ratio IC50 (Cholinesterase [5]) was 2, the Ki (Acetylcholinesterase [14]) was 0.132 nM and the Ki (Acetylcholinesterase [15]) was 0.258 nM. The Kd (Acetylcholinesterase [16]) was 2030 nM, the inhibition at 5 µM (Beta-secretase 1 [7]) was 24.8% and the IC50 (Acetylcholinesterase [8]) was 0.12 nM. For the same molecule, the IC50 (Cholinesterase [9]) was 13.4 nM and the Papp (in vitro) was 12.5 ×10⁻⁶ cm/s.
